From US20210186960A1, “MODULATORS OF INDOLEAMINE 2,3-DIOXYGENASE” (GLAXOSMITHKLINE INTELLECTUAL PROPERTY DEVELOPMENT LIMITED, priority 2017, published 2021)

What was measured:
[1] = system: human peripheral blood mononuclear cells (PBMC); test: PBMC cytotoxicity assay (CellTiter-Glo); format: cell-based; details: pCC50, CellTiter-Glo, stimulated human PBMC, 2 days
Protocol: Compounds of the present invention were tested via high-throughput cellular assays utilizing detection of kynurenine via mass spectrometry and cytotoxicity as end-points. For the mass spectrometry and cytotoxicity assays, human peripheral blood mononuclear cells (PBMC) (PB003F; AllCells®, Alameda, Calif.) were stimulated with human interferon-γ (IFN-γ) (Sigma-Aldrich Corporation, St. Louis, Mo.) and lipopolysaccharide from Salmonella minnesota (LPS) (Invivogen, San Diego, Calif.) to induce the expression of indoleamine 2, 3-dioxygenase (IDO1). Compounds with IDO1 inhibitory properties decreased the amount of kynurenine produced by the cells via the tryptophan catabolic pathway. Cellular toxicity due to the effect of compound treatment was measured using CellTiter-Glo® reagent (CTG) (Promega Corporation, Madison, Wis.), which is based on luminescent detection of ATP, an indicator of metabolically active cells.
In preparation for the assays, test compounds were serially diluted 3-fold in
DMSO from a typical top concentration of 1 mM or 5 mM and plated at 0.5 μL in 384-well, polystyrene, clear bottom, tissue culture treated plates with lids (Greiner Bio-One, Kremsmünster, Austria) to generate 11-point dose response curves. Low control wells (0% kynurenine or 100% cytotoxicity) contained either 0.5 μL of DMSO in the presence of unstimulated (−IFN-γ/−LPS) PBMCs for the mass spectrometry assay or 0.5 μL of DMSO in the absence of cells for the cytotoxicity assay, and high control wells (100% kynurenine or 0% cytotoxicity) contained 0.5 μL of DMSO in the presence of stimulated (+IFN-γ/+LPS) PBMCs for both the mass spectrometry and cytotoxicity assays.
Frozen stocks of PBMCs were washed and recovered in RPMI 1640 medium (Thermo Fisher Scientific, Inc., Waltham, Mass.) supplemented with 10% v/v heat-inactivated fetal bovine serum (FBS) (Thermo Fisher Scientific, Inc., Waltham, Mass.), and 1× penicillin-streptomycin antibiotic solution (Thermo Fisher Scientific, Inc., Waltham, Mass.). The cells were diluted to 1,000,000 cells/mL in the supplemented RPMI 1640 medium. 50 μL of either the cell suspension, for the mass spectrometry assay, or medium alone, for the cytotoxicity assay, were added to the low control wells, on the previously prepared 384-well compound plates, resulting in 50,000 cells/well or 0 cells/well respectively. IFN- y and LPS were added to the remaining cell suspension at final concentrations of 100 ng/ml and 50 ng/ml respectively, and 50 μL of the stimulated cells were added to all remaining wells on the 384-well compound plates. The plates, with lids, were then placed in a 37 °C, 5% CO2 humidified incubator for 2 days.
Following incubation, the 384-well plates were removed from the incubator and allowed to equilibrate to room temperature for 30 minutes. For the cytotoxicity assay, CellTiter-Glo® was prepared according to the manufacturer's instructions, and 40 μL were added to each plate well. After a twenty minute incubation at room temperature, luminescence was read on an EnVision® Multilabel Reader (Perkin Elmer Inc., Waltham, Mass.). For the mass spectrometry assay, 10 μL of supernatant from each well of the compound-treated plates were added to 40 μL of acetonitrile, containing 10 μM of an internal standard for normalization, in 384-well, polypropylene, V-bottom plates (Greiner Bio-One, Kremsmunster, Austria) to extract the organic analytes. Following centrifugation at 2000 rpm for 10 minutes, 10 μL from each well of the acetonitrile extraction plates were added to 90 μL of sterile, distilled H2O in 384-well, polypropylene, V-bottom plates for analysis of kynurenine and the internal standard on the RapidFire 300 (Agilent Technologies, Santa Clara, Calif.) and 4000 QTRAP MS (SCIEX, Framingham, Mass.). MS data were integrated using Agilent Technologies' RapidFire Integrator software, and data were normalized for analysis as a ratio of kynurenine to the internal standard. […]

[2] = Rat oral PK studies of prodrugs at 5 mg/kg; format: in vivo; details: after PO dose of 5 mg/kg example 7 in male Wistar Han rat; analyte as labelled
Protocol: Rat oral PK studies of prodrugs at 5 mg/kg dose (solution in 100% (40 mg oleic acid+25mg Tween 80+2 mL of PBS/fresh) at 0.5 mg/mL).

## CC(C)CN(c1ccc([C@H](C)CC(=O)O)cc1Nc1cnc(Cl)cn1)C1CCOCC1 [intermediate C4]
[1]
  PBMC TOX PXC50: <5
[2]
  DNAUC0_20: 126.6 ng·h/mL
